Laboratory results taken from PubChem BioAssay (NCI).
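Abbreviation: GI50, concentration required for 50% inhibition of growth. TGI is the concentration that stops growth completely.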

Tests used:
Assay in all cases: NCI anticancer screen, dose series, 384-well format
M14 melanoma = test system: M14 melanoma
NCI-H226 lung = test system: NCI-H226 lung
ACHN renal = test system: ACHN renal
TK-10 renal = test system: TK-10 renal
HOP-92 NSCLC = test system: HOP-92 NSCLC
MDA-MB-468 breast = test system: MDA-MB-468 breast
HL-60(TB) leukemia = test system: HL-60(TB) leukemia
IGROV1 ovarian = test system: IGROV1 ovarian
PC-3 prostate = test system: PC-3 prostate
SN12C renal = test system: SN12C renal
K-562 leukemia = test system: K-562 leukemia
COLO 205 colon = test system: COLO 205 colon
HT29 colon = test system: HT29 colon
MCF7 breast = test system: MCF7 breast
UO-31 renal = test system: UO-31 renal
NCI/ADR-RES ovarian = test system: NCI/ADR-RES ovarian
SNB-75 CNS = test system: SNB-75 CNS
NCI-H322M lung = test system: NCI-H322M lung
RPMI-8226 leukemia = test system: RPMI-8226 leukemia
SNB-19 CNS = test system: SNB-19 CNS
SK-MEL-28 melanoma = test system: SK-MEL-28 melanoma
HCC-2998 colon = test system: HCC-2998 colon
SK-MEL-5 melanoma = test system: SK-MEL-5 melanoma
OVCAR-5 ovarian = test system: OVCAR-5 ovarian
BT-549 breast = test system: BT-549 breast
SR leukemia = test system: SR leukemia
LOX IMVI melanoma = test system: LOX IMVI melanoma
KM12 colon = test system: KM12 colon
A498 renal = test system: A498 renal
A549 NSCLC = test system: A549 NSCLC
CCRF-CEM leukemia = test system: CCRF-CEM leukemia
SK-OV-3 ovarian = test system: SK-OV-3 ovarian
HCT-116 colon = test system: HCT-116 colon
DU-145 prostate = test system: DU-145 prostate
NCI-H23 lung = test system: NCI-H23 lung
HOP-62 NSCLC = test system: HOP-62 NSCLC
OVCAR-8 ovarian = test system: OVCAR-8 ovarian
SF-268 CNS = test system: SF-268 CNS
OVCAR-3 ovarian = test system: OVCAR-3 ovarian
T-47D breast = test system: T-47D breast
786-0 renal = test system: 786-0 renal
SW-620 colon = test system: SW-620 colon
SF-539 CNS = test system: SF-539 CNS
EKVX NSCLC = test system: EKVX NSCLC
HS 578T breast = test system: HS 578T breast
UACC-257 melanoma = test system: UACC-257 melanoma
SF-295 CNS = test system: SF-295 CNS

Cc1cc(-c2nc(C(=O)Nc3cc4oc(N5CCOCC5)nc4nc3N3CC[C@@H](O)C3)co2)ccn1
GI50 (M14 melanoma): 27.9 µM | TGI (M14 melanoma): > 100 µM | GI50 (NCI-H226 lung): 81.2 µM | TGI (NCI-H226 lung): > 100 µM | GI50 (ACHN renal): 19.8 µM | TGI (ACHN renal): > 100 µM | GI50 (TK-10 renal): 18.6 µM | TGI (TK-10 renal): > 100 µM | GI50 (HOP-92 NSCLC): 27.3 µM | TGI (HOP-92 NSCLC): > 100 µM | GI50 (MDA-MB-468 breast): 8.63 µM | TGI (MDA-MB-468 breast): 33.1 µM | GI50 (HL-60(TB) leukemia): 17.7 µM | TGI (HL-60(TB) leukemia): 44.2 µM | GI50 (IGROV1 ovarian): 11.4 µM | TGI (IGROV1 ovarian): 35.6 µM | GI50 (PC-3 prostate): 35.8 µM | TGI (PC-3 prostate): > 100 µM | GI50 (SN12C renal): 21.5 µM | TGI (SN12C renal): > 100 µM | GI50 (K-562 leukemia): 34.9 µM | TGI (K-562 leukemia): > 100 µM | GI50 (COLO 205 colon): 20.4 µM | TGI (COLO 205 colon): 50.2 µM | GI50 (HT29 colon): > 100 µM | TGI (HT29 colon): > 100 µM | GI50 (MCF7 breast): 16.5 µM | TGI (MCF7 breast): > 100 µM | GI50 (UO-31 renal): 33.5 µM | TGI (UO-31 renal): > 100 µM | GI50 (NCI/ADR-RES ovarian): > 100 µM | TGI (NCI/ADR-RES ovarian): > 100 µM | GI50 (SNB-75 CNS): 11.2 µM | TGI (SNB-75 CNS): 58.8 µM | GI50 (NCI-H322M lung): 30.1 µM | TGI (NCI-H322M lung): > 100 µM | GI50 (RPMI-8226 leukemia): 15.5 µM | TGI (RPMI-8226 leukemia): 39.4 µM | GI50 (SNB-19 CNS): 20.4 µM | TGI (SNB-19 CNS): > 100 µM | GI50 (SK-MEL-28 melanoma): 49.6 µM | TGI (SK-MEL-28 melanoma): > 100 µM | GI50 (HCC-2998 colon): 21.2 µM | TGI (HCC-2998 colon): > 100 µM | GI50 (SK-MEL-5 melanoma): 11.6 µM | TGI (SK-MEL-5 melanoma): 59 µM | GI50 (OVCAR-5 ovarian): 46 µM | TGI (OVCAR-5 ovarian): > 100 µM | GI50 (BT-549 breast): 16.3 µM | TGI (BT-549 breast): 82.1 µM | GI50 (SR leukemia): 18 µM | TGI (SR leukemia): 37.3 µM | GI50 (LOX IMVI melanoma): 39.3 µM | TGI (LOX IMVI melanoma): > 100 µM | GI50 (KM12 colon): 0.424 µM | TGI (KM12 colon): > 100 µM | GI50 (A498 renal): 12.3 µM | TGI (A498 renal): > 100 µM | GI50 (A549 NSCLC): 32.3 µM | TGI (A549 NSCLC): > 100 µM | GI50 (CCRF-CEM leukemia): 21.4 µM | TGI (CCRF-CEM leukemia): 62.2 µM | GI50 (SK-OV-3 ovarian): 8.43 µM | TGI (SK-OV-3 ovarian): 44.1 µM | GI50 (HCT-116 colon): 19.4 µM | TGI (HCT-116 colon): > 100 µM | GI50 (DU-145 prostate): 34.1 µM | TGI (DU-145 prostate): > 100 µM | GI50 (NCI-H23 lung): 13.1 µM | TGI (NCI-H23 lung): 47.5 µM | GI50 (HOP-62 NSCLC): 15.3 µM | TGI (HOP-62 NSCLC): > 100 µM | GI50 (OVCAR-8 ovarian): 38.1 µM | TGI (OVCAR-8 ovarian): > 100 µM | GI50 (SF-268 CNS): 54.2 µM | TGI (SF-268 CNS): > 100 µM | GI50 (OVCAR-3 ovarian): 13.3 µM | TGI (OVCAR-3 ovarian): 42 µM | GI50 (T-47D breast): 11.8 µM | TGI (T-47D breast): 88 µM | GI50 ([…]-0 renal): 43.4 µM | TGI (786-0 renal): > 100 µM | GI50 (SW-620 colon): 28.5 µM | TGI (SW-620 colon): > 100 µM | GI50 (SF-539 CNS): 23.2 µM | TGI (SF-539 CNS): > 100 µM | GI50 (EKVX NSCLC): 14.2 µM | TGI (EKVX NSCLC): 71.2 µM | GI50 (HS 578T breast): 2.37 µM | TGI (HS 578T breast): 23.4 µM | GI50 (UACC-257 melanoma): 37.5 µM | TGI (UACC-257 melanoma): > 100 µM | GI50 (SF-295 CNS): 53.7 µM | TGI (SF-295 CNS): > 100 µM

C[C@@H](Oc1cc(-n2cnc3ccc(CN4CCN(C)CC4)cc32)sc1C(N)=O)c1ccccc1C(F)(F)F
GI50 (M14 melanoma): 0.573 µM | TGI (M14 melanoma): 1.86 µM | GI50 (NCI-H226 lung): 3.55 µM | TGI (NCI-H226 lung): 17.8 µM | GI50 (ACHN renal): 3.29 µM | TGI (ACHN renal): 13.8 µM | GI50 (TK-10 renal): 1.22 µM | TGI (TK-10 renal): 6.03 µM | GI50 (HOP-92 NSCLC): 1.57 µM | TGI (HOP-92 NSCLC): 5.26 µM | GI50 (MDA-MB-468 breast): 0.214 µM | TGI (MDA-MB-468 breast): 0.446 µM | GI50 (HL-60(TB) leukemia): 0.203 µM | TGI (HL-60(TB) leukemia): 0.352 µM | GI50 (IGROV1 ovarian): 0.844 µM | TGI (IGROV1 ovarian): 11.4 µM | GI50 (PC-3 prostate): 0.804 µM | TGI (PC-3 prostate): 11.4 µM | GI50 (SN12C renal): 2.89 µM | TGI (SN12C renal): 15.4 µM | GI50 (K-562 leukemia): 0.307 µM | TGI (K-562 leukemia): 1.01 µM | GI50 (COLO 205 colon): 0.256 µM | TGI (COLO 205 colon): 0.617 µM | GI50 (HT29 colon): 0.36 µM | TGI (HT29 colon): 1.25 µM | GI50 (MCF7 breast): 0.384 µM | TGI (MCF7 breast): 2.5 µM | GI50 (UO-31 renal): 2.67 µM | TGI (UO-31 renal): 10.3 µM | GI50 (NCI/ADR-RES ovarian): 1.69 µM | TGI (NCI/ADR-RES ovarian): 3.59 µM | GI50 (SNB-75 CNS): 1.68 µM | TGI (SNB-75 CNS): 5.3 µM | GI50 (NCI-H322M lung): 1.78 µM | TGI (NCI-H322M lung): 9.79 µM | GI50 (RPMI-8226 leukemia): 0.25 µM | TGI (RPMI-8226 leukemia): 0.734 µM | GI50 (SNB-19 CNS): 1.18 µM | TGI (SNB-19 CNS): 15 µM | GI50 (SK-MEL-28 melanoma): 1.53 µM | TGI (SK-MEL-28 melanoma): 2.94 µM | GI50 (HCC-2998 colon): 0.595 µM | TGI (HCC-2998 colon): 1.89 µM | GI50 (SK-MEL-5 melanoma): 0.359 µM | TGI (SK-MEL-5 melanoma): 1.64 µM | GI50 (OVCAR-5 ovarian): 0.532 µM | TGI (OVCAR-5 ovarian): 3.76 µM | GI50 (BT-549 breast): 0.422 µM | TGI (BT-549 breast): 1.91 µM | GI50 (SR leukemia): 0.146 µM | TGI (SR leukemia): 0.294 µM | GI50 (LOX IMVI melanoma): 0.588 µM | TGI (LOX IMVI melanoma): 1.95 µM | GI50 (KM12 colon): 0.296 µM | TGI (KM12 colon): 0.982 µM | GI50 (A498 renal): 0.871 µM | TGI (A498 renal): 12.2 µM | GI50 (A549 NSCLC): 0.819 µM | TGI (A549 NSCLC): 6.85 µM | GI50 (CCRF-CEM leukemia): 0.18 µM | TGI (CCRF-CEM leukemia): 0.329 µM | GI50 (SK-OV-3 ovarian): 0.402 µM | TGI (SK-OV-3 ovarian): 2.6 µM | GI50 (HCT-116 colon): 0.534 µM | TGI (HCT-116 colon): 3.04 µM | GI50 (DU-145 prostate): 0.346 µM | TGI (DU-145 prostate): 1.21 µM | GI50 (NCI-H23 lung): 0.384 µM | TGI (NCI-H23 lung): 1.68 µM | GI50 (HOP-62 NSCLC): 0.465 µM | TGI (HOP-62 NSCLC): 2.34 µM | GI50 (OVCAR-8 ovarian): 0.348 µM | TGI (OVCAR-8 ovarian): 1.29 µM | GI50 (SF-268 CNS): 0.882 µM | TGI (SF-268 CNS): 3.64 µM | GI50 (OVCAR-3 ovarian): 0.227 µM | TGI (OVCAR-3 ovarian): 0.534 µM | GI50 (T-47D breast): 1.83 µM | TGI (T-47D breast): 5.23 µM | GI50 ([…]-0 renal): 1.17 µM | TGI (786-0 renal): 2.73 µM | GI50 (SW-620 colon): 0.34 µM | TGI (SW-620 colon): 1.51 µM | GI50 (SF-539 CNS): 0.462 µM | TGI (SF-539 CNS): 1.72 µM | GI50 (EKVX NSCLC): 0.734 µM | TGI (EKVX NSCLC): 4.19 µM | GI50 (HS 578T breast): 1.01 µM | TGI (HS 578T breast): 2.58 µM | GI50 (UACC-257 melanoma): 1.15 µM | TGI (UACC-257 melanoma): 2.37 µM | GI50 (SF-295 CNS): 1.05 µM | TGI (SF-295 CNS): 9.34 µM
